Test results taken from PubChem BioAssay AID623910 (NMMLSC, 2012).

Tested on: mouse and human plasma, RED dialysis, LC/MS/MS, 4 h
Assay: fraction of compound bound to plasma proteins – biochemical, mouse and human plasma, ADME assay for GPR30 and estrogen receptor ligands, late-stage follow-up (AID 623910)

With CC(=O)c1ccc2c(c1)[C@@H]1C=CC[C@@H]1[C@H](c1cc3c(cc1Br)OCO3)N2 the plasma protein binding (at 1 µM) was 99.8%, the plasma protein binding (human plasma binding, at 10 µM) was 99.8% and the plasma protein binding (mouse plasma binding, at 1 µM) was 99.8%. It also gave a plasma protein binding (mouse plasma binding, at 10 µM) of 99.5%.
